Measurements taken from patent publication US20260199204A1, “ANTIMICROBIAL COMBINATIONS” (Clariant International Ltd, priority 2022, published 2026).
Converted amounts (≈) assume the structure as drawn. Like-named read-outs stand apart in the source and are kept apart here. Values belong to the molecule of their own block, whether it stands above or below them.

Columns and labels:
Type in all cases: cell-based
[1] = tested on: Klebsiella pneumoniae DSM 786; assay: MIC agar dilution test, bacteria; details: Klebsiella pneumoniae (B) DSM 786, Caso-Agar, pH 7
Protocol: (§1) The antimicrobial properties of Velsan Flex, 4-Hydroxyacetophenone and a combination of both against bacteria, yeast and mold were investigated: For testing the inhibition of bacteria, Velsan Flex, 4-Hydroxyacetophenone or a combination of both was diluted in butylpolyglycol and added in different concentrations to liquid Caso-Agar at 50° C. and was buffered to pH 7 (+/−0.2). For testing the inhibition of yeast and mold, Velsan Flex, 4-Hydroxyacetophenone or a combination of both was diluted in butylpolyglycol and added in different concentrations to liquid Sabouraud-4% Dextrose-Agar at 50° C. and was buffered to pH 5.6 (+/−0.2). Each of the solutions was poured into a petri-dish and inoculated with the same amount of bacteria, yeast or mold respectively. The minimum inhibitory concentration (MIC) is the lowest concentration of the respective composition that inhibits the growth of the respective microorganism where the next lowest dilution fails to inhibit the growth of said microorganism.
(§2) In a similar experiment as described above the antimicrobial properties of Velsan SC, 4-Hydroxyacetophenone and a combination of both against bacteria, yeast and mold were investigated.

[2] = tested on: Staphylococcus aureus DSM 799; assay: MIC agar dilution test, bacteria; details: Staphylococcus aureus (B) DSM 799, Caso-Agar, pH 7
Protocol: as §1, §2

[3] = tested on: Burkholderia cepacia DSM 7288; assay: MIC agar dilution test, bacteria; details: Burkholderia cepacia (B) DSM 7288, Caso-Agar, pH 7
[4] = tested on: Aspergillus brasiliensis DSM 1988; assay: MIC agar dilution test, mold; details: Aspergillus brasiliensis (M) DSM 1988, Sabouraud-4% Dextrose-Agar, pH 5.6
Protocol: as §1, §2

[5] = tested on: Aspergillus terreus IMI 45543; assay: MIC agar dilution test, mold; details: Aspergillus terreus (M) IMI 45543, Sabouraud-4% Dextrose-Agar, pH 5.6
Protocol: as §1, §2

[6] = tested on: Fusarium solani IMI 322444; assay: MIC agar dilution test, mold; details: Fusarium solani (M) IMI 322444, Sabouraud-4% Dextrose-Agar, pH 5.6
Protocol: as §1, §2

[7] = tested on: Penicillium minioluteum/Penicillium purpurogenum ATCC 52427; assay: MIC agar dilution test, mold; details: Penicillium minioluteum/Penicillium purpurogenum (M) ATCC 52427, Sabouraud-4% Dextrose-Agar, pH 5.6
Protocol: as §1, §2

[8] = tested on: Candida albicans DSM 1386; assay: MIC agar dilution test, yeast; details: Candida albicans (Y) DSM 1386, Sabouraud-4% Dextrose-Agar, pH 5.6
Protocol: as §1, §2

[9] = tested on: Saccharomyces cerevisiae DSM 70449; assay: MIC agar dilution test, yeast; details: Saccharomyces cerevisiae (Y) DSM 70449, Sabouraud-4% Dextrose-Agar, pH 5.6
Protocol: as §1, §2

[10] = tested on: Candida parapsilosis DSM 5784; assay: MIC agar dilution test, yeast; details: Lodderomyces parapsilosis, DSM5784; Candida parapsilosis (Y) DSM 5784; Sabouraud-4% Dextrose-Agar, pH 5.6
Protocol: as §1, with “microorganism. The experiments were carried out in scientifically fair conditions so that a proper comparison could be made and conclusions drawn.” for “microorganism.”

[11] = tested on: Aspergillus brasiliensis (A.b.); assay: Challenge test (European Pharmacopoeia 10th Edition, 5.1.3) in O/W-cream gel; set-up: key: An A-criteria is related to an excellent protection of a formulation; B-criteria is needed to show sufficient protection but additional risk eliminating measures related to packaging and raw material quality need to be applied; With an F-criteria for any of the organism tested the whole challenge test is failed and the preservation/protection of the formulation is not sufficient; details: pH 7
Excerpt: (§3) Following examples show challenge test results that were done according to EUROPEAN PHARMACOPOEIA 10TH EDITION. Chapter 5.1.3. As representative microorganisms the following test germs were used: Pseudomonas aeruginosa (gram-negative organism, short “P.a.”), Staphylococcus aureus (gram-positive organism, short “S.a.”), Escherichia coli (gram negative organism, short “E.c.”), Candida albicans (yeast, short “C.a.”) and Aspergillus brasiliensis (mold, short “A.b.”). The A criteria express the recommended efficacy to be achieved. In justified cases where the A criteria cannot be attained, for example for reasons of an increased risk of adverse reactions, the B criteria must be satisfied. An A-criteria is related to an excellent protection of a formulation, B-criteria is needed to show sufficient protection but additional risk eliminating measures related to packaging and raw material quality need to be applied. With an F-criteria for any of the organism tested the whole challenge test is failed and the preservation/protection of the formulation is not sufficient. As a reference an unpreserved sample of the respective formulation was tested as well. As a test system a difficult to preserve formulation was used: Leave-on: O/W-Cream Gel [table]

[12] = tested on: Candida albicans (C.a.); assay: as above; set-up: key: An A-criteria is related to an excellent protection of a formulation; B-criteria is needed to show sufficient protection but additional risk eliminating measures related to packaging and raw material quality need to be applied; With an F-criteria for any of the organism tested the whole challenge test is failed and the preservation/protection of the formulation is not sufficient; details: pH 7
Excerpt: as §3

[13] = tested on: Escherichia coli (E.c.); assay: as above; set-up: key: An A-criteria is related to an excellent protection of a formulation; B-criteria is needed to show sufficient protection but additional risk eliminating measures related to packaging and raw material quality need to be applied; With an F-criteria for any of the organism tested the whole challenge test is failed and the preservation/protection of the formulation is not sufficient
Excerpt: as §3

[14] = tested on: Pseudomonas aeruginosa (P.a.); assay: as above; set-up: key: An A-criteria is related to an excellent protection of a formulation; B-criteria is needed to show sufficient protection but additional risk eliminating measures related to packaging and raw material quality need to be applied; With an F-criteria for any of the organism tested the whole challenge test is failed and the preservation/protection of the formulation is not sufficient; details: pH 7
Excerpt: as §3

[15] = tested on: Staphylococcus aureus (S.a.); assay: as above; set-up: key: An A-criteria is related to an excellent protection of a formulation; B-criteria is needed to show sufficient protection but additional risk eliminating measures related to packaging and raw material quality need to be applied; With an F-criteria for any of the organism tested the whole challenge test is failed and the preservation/protection of the formulation is not sufficient; details: pH 7
Excerpt: as §3

[16] = tested on: all test organisms (P.a., S.a., E.c., C.a., A.b.); assay: Challenge test in O/W-cream gel, overall result; set-up: key to Challenge test criteria for all test organisms: An A-criteria is related to an excellent protection of a formulation; B-criteria is needed to show sufficient protection but additional risk eliminating measures related to packaging and raw material quality need to be applied; With an F-criteria for any of the organism tested the whole challenge test is failed and the preservation/protection of the formulation is not sufficient; details: pH 7
Excerpt: as §3

MIC ([1]; DSM786, read-out: MIC): 8000 µg/mL
MIC ([2]; DSM799, read-out: MIC): > 10000 µg/mL
MIC ([3]; DSM7288, read-out: MIC): 4000 µg/mL (≈ 29.4 mM)
MIC ([4]; DSM1988, read-out: MIC): 8000 µg/mL
MIC ([5]; IMI45543, read-out: MIC): 6000 µg/mL
MIC ([6]; IMI322444, read-out: MIC): 3000 µg/mL
MIC ([7]; Talaromyces minioluteus, ATCC52427, read-out: MIC): 6000 µg/mL
MIC ([8]; DSM1386, read-out: MIC): 10000 µg/mL
MIC ([9]; DSM70449, read-out: MIC): 8000 µg/mL
MIC [10]: > 10000 µg/mL
Molecule: CC(=O)c1ccc(O)cc1 [10% Hydroxyacetophenone solution, 4-Hydroxyacetophenone]

Molecule: Sorbitan caprylate [90% Velsan SC solution]
MIC [1]: 2000 ppm
MIC [2]: 750 ppm
MIC [3]: 6000 ppm
MIC [4]: 4000 ppm
MIC [5]: 1500 ppm
MIC [6]: 1500 ppm
MIC [7]: 1500 ppm
MIC [8]: 1500 ppm
MIC [9]: 3000 ppm

Molecule: CC(=O)c1ccc(O)cc1 [4-Hydroxyacetophenone]
Challenge test result A.b. ([11]; concentration 0.25%): F
Challenge test result A.b. ([11]; concentration 0.5%): A
Challenge test result C.a. ([12]; concentration 0.25%): F
Challenge test result C.a. ([12]; concentration 0.5%): A
Challenge test result E.c. ([13]; concentration 0.25%, pH 7): F
Challenge test result E.c. ([13]; concentration 0.5%, pH 7): F
Challenge test result E.c. ([13]; concentration 0.5%, pH 7, listed as Hydroxyacetophenone): fails
Challenge test result P.a. ([14]; concentration 0.25%): F
Challenge test result P.a. ([14]; concentration 0.5%): A
Challenge test result S.a. ([15]; concentration 0.25%): F
Challenge test result S.a. ([15]; concentration 0.5%): B
Challenge test criteria for all test organisms ([16]; 0.25% as single preservative (entry 5)): F
Ability to preserve the formulation ([16]; use level 0.5%, alone (entry 6)): not sufficient to preserve the formulation

Molecule: Sorbitan caprylate [Velsan SC]
Challenge test result A.b. ([11]; concentration 0.5%): B
Challenge test result C.a. ([12]; concentration 0.5%): F
Challenge test result E.c. ([13]; concentration 0.5%, pH 7): F
Challenge test result P.a. ([14]; concentration 0.5%): F
Challenge test result S.a. ([15]; concentration 0.5%): B
Ability to preserve the formulation ([16]; alone, entries 8-11 (0.5%; Velsan CGE 0.5% and 0.25%)): not sufficient to preserve the formulation
